The values that follow come from ChEMBL document CHEMBL1149256, “Discovery of 4-aryl-4H-chromenes as a new series of apoptosis inducers using a cell- and caspase-based high-throughput screening assay. 1. Structure-activity relationships of the 4-aryl group” (J Med Chem, 2004).

The subject of experiment [1] is T47D. As to the kind of experiment: Induction of apoptosis in human T47D cells assessed as caspase activation after 24 hrs. In kind it is functional, cell-based.
The subject of experiment [2] is NCI-H1299. As to the kind of experiment: Induction of apoptosis in human H1299 cells assessed as caspase activation after 24 hrs. The experiment is classed as functional, cell-based. The settings on record: NCI-H1299, 24 h.
Experiment [3] has as its system DLD-1. Nature of the experiment: Induction of apoptosis in human DLD1 cells assessed as caspase activation after 24 hrs. The settings on record: DLD-1, 24 h. The experiment is classed as functional, cell-based.
Experiment [4] has as its system Jurkat. Nature of the experiment: Induction of apoptosis in Jurkat cells assessed as PARP cleavage at 1 uM after 30 hrs. The experiment is classed as functional, cell-based. The settings on record: Homo sapiens.
The test system of experiment [5] is T47D. As to the kind of experiment: Antiproliferative activity against human T47D cells after 48 hrs by MTT assay. The experiment is classed as functional. For orientation: Tetrazolium assays rely on reduction of a dye to a coloured formazan, in cell work by metabolically active cells.
Experiment [6] concerns DLD-1. As to the kind of experiment: Antiproliferative activity against human DLD1 cells after 48 hrs by MTT assay. In kind it is functional. As to conditions: DLD-1, 48 h.
The test system of experiment [7] is T47D. Nature of the experiment: Ratio of GI50 for human T47D cells to EC50 for human T47D cells. The experiment is classed as functional.
Experiment [8] concerns DLD-1. As to the kind of experiment: Ratio of GI50 for human DLD1 cells to EC50 for human DLD1 cells. The experiment is classed as functional.
The subject of experiment [9] is Jurkat. Nature of the experiment: Induction of caspase-mediated apoptosis in Jurkat cells at 0.1 uM after 24 hrs by nuclear fragmentation assay. As to conditions: Homo sapiens. In kind it is functional, cell-based.
For experiment [10], the system named is Jurkat. As to the kind of experiment: Induction of apoptosis in Jurkat cells assessed as PARP cleavage at 2.5 uM. In kind it is functional, cell-based. As to conditions: Homo sapiens, TDE = time-dependent effect.
Experiment [11] concerns T47D. Nature of the experiment: Induction of apoptosis in human T47D cells assessed as accumulation at subG1 phase at 0.1 uM after 24 hrs. In kind it is functional.
For experiment [12], the system named is T47D. As to the kind of experiment: Induction of apoptosis in human T47D cells assessed as accumulation at G1 phase at 0.1 uM after 24 hrs. In kind it is functional.
Experiment [13] relates to T47D. As to the kind of experiment: Induction of apoptosis in human T47D cells assessed as accumulation at S phase at 0.1 uM after 24 hrs. The experiment is classed as functional.
Experiment [14] deals with T47D. As to the kind of experiment: Induction of apoptosis in human T47D cells assessed as accumulation at G2/M phase at 0.1 uM after 24 hrs. The experiment is classed as functional.
For experiment [15], the system named is T47D. Nature of the experiment: Induction of apoptosis in human T47D cells assessed as accumulation at subG1 phase at 0.1 uM after 48 hrs. In kind it is functional.
Experiment [16] has as its system T47D. Nature of the experiment: Induction of apoptosis in human T47D cells assessed as accumulation at G1 phase at 0.1 uM after 48 hrs. In kind it is functional.
Experiment [17] relates to T47D. As to the kind of experiment: Induction of apoptosis in human T47D cells assessed as accumulation at S phase at 0.1 uM after 48 hrs. The experiment is classed as functional.
Experiment [18] has as its system T47D. Nature of the experiment: Induction of apoptosis in human T47D cells assessed as accumulation at G2/M phase at 0.1 uM after 48 hrs. The experiment is classed as functional.
The target of experiment [19] is Tubulin. As to the kind of experiment: Inhibition of tubulin polymerization. The experiment is classed as protein-complex assay, Homo sapiens.
Experiment [20] deals with Tubulin. As to the kind of experiment: Displacement of [3H]colchicine from tubulin. The experiment is classed as protein-complex assay, Homo sapiens. (In general: In a radioligand displacement assay an active substance lowers the binding of a labelled ligand.)

Active and inactive are the calls of the source. The rule behind the calls is not given here. Bounds are passed on as bounds.

Turning to `Cc1cccc(C2C(C#N)=C(N)Oc3cc(N(C)C)ccc32)n1` (centres undefined), the values for the EC50 in experiment [1], in [2] and in [3] were 244 nM, 622 nM and 438 nM, respectively.
Turning to `CC[C@]1(O)C[C@@H]2CN(CCc3c([nH]c4ccccc34)[C@@](C(=O)OC)(c3cc4c(cc3OC)N(C)[C@H]3[C@@](O)(C(=O)OC)[C@H](OC(C)=O)[C@]5(CC)C=CCN6CC[C@]43[C@@H]65)C2)C1` [VINBLASTINE], the EC50 (in general, the concentration that produces a half-maximal response) in experiment [1] amounted to 25 nM; in experiment [2], 73 nM; in experiment [3] it was 129 nM.
For `COc1ccccc1C1C(C#N)=C(N)Oc2cc(N(C)C)ccc21` (centres undefined), in that order: 280 nM, 560 nM and 330 nM.
The like results for `CN(C)c1ccc2c(c1)OC(N)=C(C#N)C2c1cccnc1` (centres undefined) were, in that order, 68 nM, 155 nM and 123 nM.
For `CCCCCCCCCCCCOc1cccc(C2C(C#N)=C(N)Oc3cc(N(C)C)ccc32)c1` (centres undefined), in that order: > 10000 nM, > 10000 nM and > 10000 nM.
Regarding `CC(=O)O[C@H]1C(=O)[C@@]2(C)[C@H]([C@H](OC(=O)c3ccccc3)[C@]3(O)C[C@H](OC(=O)[C@H](O)[C@@H](NC(=O)c4ccccc4)c4ccccc4)C(C)=C1C3(C)C)[C@]1(OC(C)=O)CO[C@@H]1C[C@@H]2O` [PACLITAXEL], the EC50 in experiment [1] is 30 nM; in [2] it was 163 nM; in [3], 75 nM.
The like results for `COc1cccc(C2C(C#N)=C(N)Oc3cc(N(C)C)ccc32)c1OC` (centres undefined) were, in that order, 1020 nM, 2130 nM and 1270 nM.
For `Cc1cncc(C2C(C#N)=C(N)Oc3cc(N(C)C)ccc32)c1` (centres undefined), in that order: 11 nM, 27 nM and 18 nM.
For `CN(C)c1ccc2c(c1)OC(N)=C(C#N)C2c1cccc(OC(F)(F)F)c1` (centres undefined), in that order: 450 nM, 1140 nM and 457 nM.
Regarding `CN(C)c1ccc2c(c1)OC(N)=C(C#N)C2c1cncc(Br)c1` (centres undefined), the concentration for a half-maximal effect (EC50) is 33 nM in [1], 46 nM in [2] and 26 nM in [3].
For `CN[C@@H]1C[C@H]2O[C@@](C)([C@@H]1OC)n1c3ccccc3c3c4c(c5c6ccccc6n2c5c31)C(=O)NC4`, the result in experiment [4] was Active.
As to `CN(C)c1ccc2c(c1)OC(N)=C(C#N)C2c1ccccn1` (centres undefined), the EC50 in experiment [1] was determined as 465 nM; in experiment [2], 1430 nM; in [3], 959 nM.
As for `COc1ccc(C2C(C#N)=C(N)Oc3cc(N(C)C)ccc32)c(OC)c1OC` (centres undefined), the EC50 in experiment [1] was determined as 3160 nM; in [2], 3740 nM; in experiment [3], 5090 nM.
On to `CN(C)c1ccc2c(c1)OC(N)=C(C#N)C2c1cc(Br)c2c(c1)OCO2` (centres undefined), for which the EC50 in experiment [1] is 245 nM; in experiment [2] it was 754 nM; in experiment [3] it was 293 nM. In addition, the GI50 (as a rule, the concentration giving 50% growth inhibition) is 605 nM in experiment [5] and 735 nM in [6]. Moreover, the “Ratio GI50/EC50” value in experiment [7] and in experiment [8] was 2.5 each time.
Consider `CN(C)c1ccc2c(c1)OC(N)=C(C#N)C2c1cnc2ccccc2c1` (centres undefined), for which the figures for the EC50 in experiment [1], in experiment [2] and in [3] were 1820 nM, 2230 nM and 2740 nM, respectively.
The like results for `COc1cc(C2(C)C(C#N)=C(N)Oc3cc(N(C)C)ccc32)cc(Br)c1OC` (centres undefined) were, in that order, 7300 nM, 7800 nM and 10400 nM.
For `CN(C)c1ccc2c(c1)OC(N)=C(C#N)C2c1cccs1` (centres undefined), in that order: 200 nM, 300 nM and 270 nM.
The like results for `Cc1cccc(C2C(C#N)=C(N)Oc3cc(N(C)C)ccc32)c1` (centres undefined) were, in that order, 134 nM, 420 nM and 168 nM.
Take `CN(C)c1ccc2c(c1)OC(N)=C(C#N)C2c1cc(Br)cs1` (centres undefined): the EC50 came out at 150 nM in [1], 240 nM in [2] and 160 nM in experiment [3].
`COc1cc(C2C(C#N)=C(N)Oc3cc(N(C)C)ccc32)cc2c1OCO2` (centres undefined): the outcome in experiment [9] was Active. In addition, the Activity result in [10] is “tde”; in experiment [11] it was 4.3%; in experiment [12], 43.5%; in experiment [13] it was 7.6%; in experiment [14], 44%; in experiment [15] it was 12%. In addition, the values for the Activity in [16], in [17] and in experiment [18] were 11%, 18.8% and 57%, respectively. For the same compound, the half-maximal effective concentration (EC50) in experiment [3] is 83 nM. Moreover, the IC50 (in general, the point on the concentration scale where inhibition reaches its midpoint) in experiment [19] amounted to 400 nM.
With `CN(C)c1ccc2c(c1)OC(N)=C(C#N)C2c1cccc(C(=O)O)c1` (centres undefined), the EC50 in experiment [1], in experiment [2] and in [3] was > 10000 nM throughout.
Turning to `COc1cc(C2C(C#N)=C(N)Oc3cc(N(C)C)ccc32)cc(I)c1OC` (centres undefined), the figures for the EC50 in experiment [1], in [2] and in experiment [3] were 18 nM, 34 nM and 64 nM, respectively.
For `CN(C)c1ccc2c(c1)OC(N)=C(C#N)C2c1cccc(O)c1` (centres undefined), in that order: 272 nM, 959 nM and 532 nM.
The like results for `CN(C)c1ccc2c(c1)OC(N)=C(C#N)C2c1cccc(Br)c1` (centres undefined) were, in that order, 64 nM, 337 nM and 87 nM.
For `CN(C)c1ccc2c(c1)OC(N)=C(C#N)C2c1cccc(Cl)c1` (centres undefined), the EC50 in [1] was 112 nM; in [2], 514 nM; in [3] it was 158 nM.
For `COc1cc(C2C(C#N)=C(N)Oc3cc(N(C)C)ccc32)cc(Br)c1O` (centres undefined), in that order: 41 nM, 144 nM and 64 nM.
Consider `COc1cc2c(c(OC)c1OC)-c1ccc(OC)c(=O)cc1[C@@H](NC(C)=O)CC2` [COLCHICINE], for which the EC50 in [2] was 34 nM.
Consider `COc1cc(C2C(C#N)=C(N)Oc3cc(N(C)C)ccc32)cc(Cl)c1OC` (centres undefined), for which the EC50 in [1] came out at 18 nM; in experiment [2] it was 36 nM; in experiment [3], 65 nM.
The like results for `CN(C)c1ccc2c(c1)OC(N)=C(C#N)C2c1cccc(C#N)c1` (centres undefined) were, in that order, 63 nM, 215 nM and 82 nM.
For `COc1cccc(C2C(C#N)=C(N)Oc3cc(N(C)C)ccc32)c1` (centres undefined), in that order: 65 nM, 200 nM and 81 nM.
The like results for `CN(C)c1ccc2c(c1)OC(N)=C(C#N)C2CCc1ccccc1` (centres undefined) were, in that order, 430 nM, 1080 nM and 590 nM.
For `COc1ccc(C2C(C#N)=C(N)Oc3cc(N(C)C)ccc32)cc1` (centres undefined), the EC50 in [1] came out at 1600 nM; in experiment [2] it was 2000 nM; in experiment [3], 2600 nM.
For the compound `CN(C)c1ccc2c(c1)OC(N)=C(C#N)C2c1cc(Cl)cc(Cl)c1` (centres undefined), the EC50 in experiment [1] amounted to 76 nM; in experiment [2] it was 233 nM; in experiment [3] it was 242 nM.
For `COc1cc(OC)c(C2C(C#N)=C(N)Oc3cc(N(C)C)ccc32)cc1OC` (centres undefined), in that order: 1770 nM, 2290 nM and 3240 nM.
The like results for `COc1cc(Br)cc(C2C(C#N)=C(N)Oc3cc(N(C)C)ccc32)c1` (centres undefined) were, in that order, 31 nM, 63 nM and 125 nM.
The like results for `CN(C)c1ccc2c(c1)OC(N)=C(C#N)C2c1cccc(F)c1` (centres undefined) were, in that order, 81 nM, 304 nM and 129 nM.
Take `COc1ccc(C2C(C#N)=C(N)Oc3cc(N(C)C)ccc32)cc1OC` (centres undefined): the concentration for a half-maximal effect (EC50) in experiment [1] worked out at 253 nM; in [2], 510 nM; in experiment [3], 347 nM.
With `COc1cc(C2C(C#N)=C(N)Oc3cc(N(C)C)ccc32)cc(Br)c1OC` (centres undefined), in [20], the IC50 was determined as 8000 nM.
`CN(C)c1ccc2c(c1)OC(N)=C(C#N)C2c1ccncc1` (centres undefined): the concentration for a half-maximal effect (EC50) in [1] was 381 nM; in experiment [2] it was 855 nM; in [3] it was 780 nM.
